The values that follow come from patent US8546366B2, “Method for inhibition of tumor cell growth using (22R)-5α-lanosta-8,24-dien-3β,15α,21-triol” (Mackay Memorial Hospital, priority 2011, dated 2013).

In one data set the test system is caspase 3 and caspase 8. The data set is described as follows: Caspase dependence of growth inhibition and caspase expression. Type of data set: cell-based. The text has this:
Thus, the compound may induce apoptosis in a caspase-independent pathway.

Data set [1] has as its system human leukemic cell line U937. The data set is described as follows: Cell cycle analysis by flow cytometry. The class given is cell-based. The following applies: 2.5 μg/ml, 48 hours. As to the method: Flow cytometer was used to analyze the effect of the compound on cell cycle of human leukemic cells.
The compound in concentration of 2.5 μg/ml was used to treat human leukemic cell line U937, and cells without addition of compound were served as the control group. The treated cells after 48 hours of treatment were fixed at 4° C. with 70% ethanol for 1 hour and stained for 30 minutes with propidium iodide solution (0.5 mg/ml of propidium iodide; 0.1 mg/ml of RNAse) contained in a CycleTEST PLUS DNA reagent kit (Becton Dickinson, Lincoln Park, N.J.). DNA content measurement on the collected 10^4 cells was performed on the FACS Calibur flow cytometer (Becton Dickinson), and the cell cycle changes were analyzed using a ModFit software (Becton Dickinson).

Data set [2] deals with human esophageal cancer cell line CE-81T/VGH. The data set is described as follows: MTT cell survival assay, esophageal cancer cells. The class given is cell-based. Particulars: 5 μg/ml, 72 hours. As to the method:
The purified compound was added into the culture media with human esophageal cancer cell line CE-81T/VGH to test for tumor cell survival. This survival assay was carried out with the abovementioned MTT assay, wherein the CE-81T/VGH esophageal cancer cell line was obtained from Taipei Veteran General Hospital, the cell line originated from the epithelium of human esophageal cancer cells.
(§1) The human esophageal cancer cell line CE-81T/VGH was cultivated in DMEM media containing 100 IU/ml penicillin (Invitrogen, Carlsbad, Calif.), 100 μg/ml streptomycin (Invitrogen, Carlsbad, Calif.), 2 mM glutamin (Invitrogen, Carlsbad, Calif.), and 10% fetal calf serum (Atlanta Biologicals, Norcross, Ga.). The proliferated cells were treated with the compound in the concentration of 0 (the control group) and 5 μg/ml (the experimental group), respectively. The cells were incubated at 37° C. in a 5% CO2 incubator for 24-72 hours. 500 μg/ml of MTT was added into each well in the dark and incubated for 4 hours, followed by the addition of 500 μl of isopropanol to stop the reaction. The plates were read on an ELISA reader at wavelength of 570 nm to determine the survival rates.
(Tetrazolium assays rely on reduction of a dye to a coloured formazan, in cell work by metabolically active cells.)

The subject of data set [3] is human leukemic cell U937. The data set is described as follows: Mitochondria transmembrane potential, DiOC6(3) flow cytometry. The following applies: 5 μg/ml, 16 hours. Type of data set: cell-based. As to the method:
Human leukemic cell U937 was treated with the compound (5 μg/ml) for 16 hours. The same cells treated with anti-tumor agent camptothecin (4 μM) for 16 hours were used as positive control group, while untreated cells were used as control group. The cells were then washed with PBS solution, followed by addition of 40 nM 3,3′-dihexyloxacarbocyanine(DiOC6(3); Molecular Probes, Eugene, Oreg.) into culture medium at 37° C. in the dark and incubated for 15 minutes. The results were analyzed immediately using flow cytometry, wherein the excitation wavelength was set at 488 nm and emission wavelength set at 530 nm to detect fluorescence density and as representative of mitochondria transmembrane potential change.
(A flow cytometer gives signals particle by particle.)

Data set [4] concerns human hepatoma cell line HA22T/VGH. The data set is described as follows: MTT cell survival assay, hepatoma cells. The following applies: 5 μg/ml, 72 hours. Type of data set: cell-based. As to the method:
The test adopted the cell survival analysis (i.e., the MTT assay as described above). The purified compound was added into the culture media with human hepatoma cell line HA22T/VGH to test for tumor cell survival. This survival assay was carried out with the abovementioned MTT assay, wherein the hepatoma cell line HA22T/VGH was obtained from Taipei Veteran General Hospital, the cell line originated from the human hepatoma.
as §1, with “hepatoma” for “esophageal cancer”, “HA22T/VGH” for “CE-81T/VGH”

Data set [5] concerns human pancreatic cancer cell line BxPC-3. The data set is described as follows: MTT cell survival assay, pancreatic cancer cells. Type of data set: cell-based. As to the method:
The test adopted the cell survival analysis (i.e., the MTT assay as described above). The purified compound was added into the culture media with human pancreatic cancer cell line BxPC-3 to test for tumor cell survival. This survival assay was carried out with the abovementioned MTT assay, wherein the pancreatic cancer cell line BxPc-3 was purchased from American Type Culture Collection (ATCC), the cell line originated from the epithelium of human pancreatic adenocarcinomas.
The human pancreatic cancer cell line BxPc-3 was cultivated in DMEM media containing 100 IU/ml penicillin (Invitrogen, Carlsbad, Calif.), 100 μg/ml streptomycin (Invitrogen, Carlsbad, Calif.), 2 mM glutamin (Invitrogen, Carlsbad, Calif.), and 10% fetal calf serum (Atlanta Biologicals, Norcross, Ga.). The proliferated cells were treated with the compound in the concentration of 0 (the control group), 5 and 10 μg/ml (the experimental group), respectively. The cells were incubated at 37° C. in a 5% CO2 incubator for 24-72 hours. 500 μg/ml of MTT was added into each well in the dark and incubated for 4 hours, followed by the addition of 500 μl of isopropanol to stop the reaction. The plates were read on an ELISA reader at wavelength of 570 nm to determine the cell survival rates. The results were reported as the average±(plus/minus) SEM (Standard Error in the Mean). […]

The test system of data set [6] is human ovarian cancer cell line SKOV-3. The data set can be described thus: MTT cell survival assay, ovarian cancer cells. Type of data set: cell-based. Particulars: 5 μg/ml, 72 hours. As to the method: The test adopted the cell survival analysis (i.e. the MTT assay as described above). The purified compound was added into the culture media of human ovarian cancer cell line SKOV-3 to test for tumor cell survival. This survival assay was carried out with the abovementioned MTT assay, wherein the ovarian cancer cell line SKOV-3 was purchased from American Type Culture Collection (ATCC), the cell line originated from the epithelium of human ovarian cancer.
as §1, with “ovarian” for “esophageal”, “SKOV-3” for “CE-81T/VGH”

The test system of data set [7] is human leukemic cell U937. The data set is described as follows: MTT cell survival assay, leukemic cells U937. Type of data set: cell-based. As to the method:
Examples of the present invention adopted anti-tumor drugs screening model of National Cancer Institute (NCI) to examine inhibitory effect of the compound on cancer cells. The compound was added into culture medium containing leukemic cells U937 (a human monoblastoid leukemic cell line) to test for tumor cell survival. Cell survival rate is determined by well known MTT assay, and U937, a human myeloid leukemic cell line obtained from American Type Culture Collection (ATCC), is belonged to one of human acute leukemic cell lines and is classified as monoblasts during hematopoietic differentiation.
MTT assay is a commonly used method for analysis of percent of viable cells, wherein MTT (3-[4,5-dimethylthiazol-2-yl]2,5-diphenyltetrazolium bromide) is a yellow color dye that can be absorbed by living cells and be converted by mitochondria succinate tetrazolium reductase to water insoluble purple-blue formazan. Therefore, the amount of formazan formation can be used as an assessment tool to determine the survival rate of cells.
The human leukemia cell line U937 was cultivated in RPMI 1640 medium containing fetal calf serum for 24 hours and maintained in the exponential growth condition. The proliferating cells were treated with the compound in the concentration of 0 (the control group), 1.25, 2.5, 5 or 10 μg/ml at 37° C. under 5% CO2 for 24-72 hours, respectively. Then MTT was added in a concentration of 500 μg/ml into each wells in the dark and incubated for 4 hours, followed by the addition of 500 μl of isopropanol to stop the reaction. The plates were read on an ELISA reader at wavelength of 570 nm to determine the cell survival rates. The results were reported as the average±(plus/minus) SEM (Standard Error in the Mean). For statistical analysis, the t-test was used to compare the difference between each experiment result. p<0.05 was considered statistically significant.

Data set [8] concerns human cervical adenocarcinoma cell line HeLa. The data set can be described thus: MTT cell survival assay, cervical adenocarcinoma cells. The class given is cell-based. Particulars: 5 μg/ml, 72 hours. As to the method: The test adopted the cell survival analysis (i.e., the MTT assay as described above). The purified compound was added into the culture media with human cervical adenocarcinoma cell line HeLa to test for tumor cell survival. This survival assay was carried out with the abovementioned MTT assay, wherein the cervical adenocarcinoma cell line HeLa was purchased from American Type Culture Collection (ATCC), the cell line originated from the epithelium of human cervical adenocarcinoma.
as §1, with “cervical adenocarcinoma” for “esophageal cancer”, “HeLa” for “CE-81T/VGH”

For another data set, the system named is tumor cells. The data set can be described thus: DNA gel electrophoresis, inter-nucleosomal DNA cleavage. The class given is cell-based. Particulars: 5 μg/ml; 24 hours; 1.5% agarose gel. As to the method: Lane 1, molecular marker; Lane 2, control group; Lane 3, experimental group (treated with 5 μg/ml of the compound for 24 hours).
In addition to the morphological changes described above, cells may show some biochemical changes during cell apoptosis, including chromatin condensation, formation of apoptotic body due to cell fragmentation, and inter-nucleosomal cleavage of DNA that leading to formation of DNA ladder in DNA electrophoresis. To confirm the relationship of inhibition activity between the compound and the stage of cell apoptosis, the experiment adopted DNA electrophoresis to examine inter-nucleosomal cleavage of DNA into DNA ladder at late stage of cell apoptosis.
Total DNAs were extracted and analyzed by 1.5% agarose gel electrophoresis in TBE buffer (5 mM TBE buffer containing 1 μM EDTA, pH 8.0). The gel was stained with ethidium bromide and visualized under UV.

For data set [9], the system named is U937, BxPC-3, CE-81T/VGH, HA22T/VGH and HeLa tumor cell lines. The data set can be described thus: MTT assay, summary over the inhibited tumor cell lines. Type of data set: cell-based, human. Particulars: range over U937, BxPC-3, CE-81T/VGH.
For data set [10], the system named is human normal monocytes isolated from peripheral blood mononuclelar cells. The data set is described as follows: Viability of human normal monocytes. Type of data set: cell-based. Particulars: for effect on normal monocytes: normal human peripheral blood monocytes. As to the method: FIG. 4 is a morphological assessment of human normal peripheral blood monocytes treated by the compound. Liu's stain method was used for morphological observation. (A) Control group and (B) Experimental group (treated with 5 μg/ml of the compound for 1 day).

With `CC[C@@]1(O)C(=O)OCc2c1cc1n(c2=O)Cc2cc3ccccc3nc2-1` [camptothecin, reference compound], the “block of induced growth inhibition by caspase 3 and pan-caspase inhibitors” value with caspase 3 and caspase 8 is listed as “could block”.

`CC(C)=CCC[C@@H](CO)[C@H]1C[C@H](O)[C@@]2(C)C3=C(CC[C@]12C)[C@@]1(C)CC[C@H](O)C(C)(C)[C@@H]1CC3` [the compound, (22R)-5α-lanosta-8,24-dien-3β,15α,21-triol]: in data set [1], the cell cycle distribution entry is “hypoploidy, G2/M phase arrest, and polyploidy”. In addition, the inhibitory rate in data set [2] was 61.4%; in [4], 90.3%; with human leukemic cell U937 [7] (U937, 1.25, 2.5, 5 and 10 μg/ml, all groups, third day), “more than 60%”; with human leukemic cell U937 [7] (U937, 5 and 10 μg/ml groups, third day), “more than 95%”; in [8] it was 56.8%. In addition, the “mitochondria transmembrane potential change” value in the data set with human leukemic cell U937 [3] was “did not be exhibited significantly reduction of transmembrane potential”. This compound showed an inhibition rate in data set [5] (5 μg/ml (summary)) of 49.1%. Besides, the highest inhibitory rate came out at 48.5% in data set [5] (5 and 10 μg/ml groups, third day, highest rate); 99.8% in the data set with human leukemic cell U937 [7] (U937, highest rate, 5 and 10 μg/ml groups, third day). The growth inhibition entry in [6] is listed as “could not inhibit the growth”. Further, the IC50 entry with human leukemic cell U937 [7] (U937 cells, MTT) was “about 2 μg/ml”. Moreover, in the data set with tumor cells, the “genomic DNA fragmentation (DNA ladder)” value was “induced the genomic DNA into oligonucleosomal fragmentations”. The “inhibition rate on tumor cell lines” value in data set [9] is given as 48.5˜99.8%. This compound also displayed a viability inhibition in data set [10] (human normal monocytes) of under 10%. Moreover, the “effect on normal monocytes” value is on record as “without toxicity to normal monocytes” in data set [10] and “no effect” in [10] (listed as The compound).
